In patent publication US11439709B2, “Phospholipid ether analogs as cancer-targeting drug vehicles” (Cellectar Biosciences, Inc., priority 2014, dated 2022):

Key:
PC-3 cells = test: Uptake of 125I-CLR1404 by PC-3 cells after lipid raft disruption with filipin III; assay type: cell-based; settings: PC-3 cells pretreated with 2 μg/ml filipin III 15 min, then 125I-CLR1404 for 1 h; compared to untreated control cells
Method: PC-3 cells were pretreated with either 2 μg/ml filipin III or vehicle for 15 min, then washed and incubated with 2 μCi of ^125I-CLR1404 for 1 h. The media was removed and the cells were washed with phosphate buffered saline containing 0.1% bovine serum albumin, trypsinized, then split into two samples for determination of cell number by DNA content (A280 compared to a cell line specific standard curve) and counts per minute using a Gamma Counter (Perkin Elmer).

C6 glioma = test: Rat C6 glioma model, NM404 imaging and tissue distribution; assay type: in vivo; settings: for Tumor to brain ratio: C6 glioma-bearing rats
Method: Materials and Methods: All animals were housed and handled in accordance with the University of Wisconsin Research Animal Resources Center guidelines. Rat C6 glioma cells were propagated in DMEM medium (Life Technologies, Gaithersburg, Md.) supplemented with 10% heat-inactivated FBS (Bio Whittaker, Walkersville, Md.), 100 U/ml penicillin G, […] streptomycin, and 0.01 M HEPES (Life Technologies, Gaithersburg, Md.). Intracranial tumor implantation was performed as described previously. Cohen J D, et al., Intracranial C6 glioma model in adult Wistar-Furth rats. J Neuro Oncol 1990 8(1):95-6. Briefly, 1×10^6 C6 cells were resuspended in […] 1.2% methylcellulose and injected into the frontal lobes of anesthetized female Wistar rats (Harlan, Indianapolis, Ind.). Sham-operated animals received intracranial injections of an equal volume of methylcellulose without tumor cells.
Imaging Studies: Ten days after implantation, the presence of intracranial tumors was confirmed with MM. Briefly, anesthetized rats (6) received 2 ml of Gadodiamide (Gd, Omniscan 287 mg/ml, Nycomed, Princeton, N.J.) intraperitoneally and imaged 10 min later using a 1.5 Tesla clinical MR system (GE Signa LX) and a GE phased array extremity coil. The Tl-weighted (TR=500 ms, TE=I6.5 ms) multislice sequences covering the entire brain of each rat were inspected to select tumor-bearing rats with varying tumor sizes, and sham-operated rats for NM404 injections.
NM404 [18-(4-iodophenyl)-octadecylphosphocholine] (100 mg) was radioiodinated with ^125l via isotope exchange with Na^125I in a melt of pivalic acid. Weichert, et al. Int J Appl Rad Isotopes 1986; 37:907-913. NM404 has the same chemical structure as CLR1404 except that it is radioiodinated with ^125l instead of ^124l or ^131l. Following HPLC purification NM404 was dissolved in an aqueous 2% Polysorbate 20 solution prior to tail vein injection (5: −20 μCi/200 g rat) into four tumor-bearing and three sham-operated rats. At 1 (n=1), 2 (n=1), and 4 (n=2) days after NM404 injection, animals were euthanized (CO2) and brains were excised and imaged on a modified Bioscan AR2000 radio-TLC scanner (1 mm increments at 2 min acquisition/lane and 1 mm high-resolution collimator). In addition, normal brain, blood, kidney, liver, spleen, thyroid, and tumor tissues were weighed, and radioactivity counted in a gamma counter. The tissue distribution of radioactivity was then correlated to brain histology.

[1] = system: cancer cell lines (renal, ovarian, pancreatic, melanoma, and prostate); test: Uptake of CLR1501 by cancer cell lines versus normal fibroblasts (confocal microscopy); assay type: cell-based; settings: 24 hours; five cancer cell lines (renal, ovarian, pancreatic, melanoma, prostate) vs normal human skin fibroblasts; 5 or 7.5 μM
Source text: Human cancer cell lines were purchased from the American Type Culture Collection (ATCC). They included the following: Caki-2 (renal; clear cell carcinoma), HCT-116 (colorectal carcinoma); MES-SA/Dx5 (uterine sarcoma) [all maintained in McCoy's 5a medium supplemented with 10% fetal bovine serum (FBS)], Ovcar-3 (ovarian adenocarcinoma) [maintained in RPMI medium supplemented with 20% FBS], U87-MG (glioma) [maintained in minimum essential medium supplemented with 10% FBS], Mia Paca-2 (pancreatic carcinoma) (maintained in Dulbecco's modified Eagle's medium supplemented with 10% FBS), PC-3 (prostate carcinoma) (maintained in F-12K medium supplemented with 10% FBS), MDA-MB-231 (triple-negative mammary gland adenocarcinoma) (maintained in Leibovitz's medium supplemented with 10% FBS), and A549 (non-small cell lung carcinoma) (maintained in F-12 medium supplemented with 10% FBS). Normal human skin fibroblasts were purchased from ATCC and grown in Fibroblast Basal Medium PCS-201-030 supplemented with serum-free kit (Fibroblast Growth. Kit-Serum-Free PCS-201-040). […]
All cells were maintained at 37° C. in appropriate medium supplemented with 10% FBS and 5% CO2. […] The emission signal of CLRI 50 I was detected using Alexa Fluor 488 filters (ex/em 480/520 nm).

[2] = system: human glioblastoma stemlike cells and serum-cultured human glioblastoma cells; settings: Weichert J. P., et al. (2014), FIG. 2; cited from earlier work
[3] = system: non-small cell lung carcinoma (NSCLC) tumors; test: Clinical evaluation of 131I-CLR1404 in NSCLC patients (gamma imaging); assay type: in vivo, human; settings: two patients with advanced NSCLC; injection of <1 mCi 131I-CLR1404
Method: To date, two patients with advanced NSCLC were imaged after an injection of <1 mCi of ^131I-CLR1404. Blood and urine samples were collected at predetermined times, and gamma imaging performed at several time points following administration.
Materials and Methods: Following intravenous injection of iodine-131 labeled CLR1404 (1 mCi/20 μg), patients with advanced NSCLC where scanned at 3, 6, 24, 48, 96 h and at 7 and 11 days on a GE Maxxus dual Head SPECT scanner. Blood and urine samples were collected for pharmacokinetic analysis as well as clinical hematologic, renal, and hepatic bioanalysis.

[4] = system: human RL-251 tumor xenograft; test: Prolonged retention of 131I-CLR1404 by RL-251 tumor xenograft; assay type: in vivo, SCID mouse; settings: See FIG. 3
Source text: FIG. 3. Prolonged retention of ^131ICLR1404 by human RL-251 tumor xenograft in SCIO mouse.

[5] = system: xenograft, orthotopic and transgenic cancer and cancer stem cell derived animal models; test: Tumor selectivity of radioiodinated CLR1404 across animal tumor models (overall count); assay type: in vivo; settings: transgenic and spontaneous rodent models
Method: All described animal studies were performed according to animal protocols approved by the Institutional Animal Care and Use Committee. Female athymic nude mice (Hsd:Athymic Nude-Foxnlnu or Crl:NU-Foxn1nu, Charles River Laboratories) about 4 to 5 weeks of age, 16 to 18 g (n=6), were used for human tumor xenograft studies. Mice were anesthetized with isoflurane and injected subcutaneously with viable tumor cells in 100 μl of Dulbecco's PBS (or, for glioma cells, […] of PBS) into the right flank. Inoculum sizes were 1×10^6 (for renal, ovarian, glioma, pancreatic, prostate, and NSCLC models), 2×10^6 (for colorectal and uterine models), or 3×10^6 (breast).
Radioiodinated ^124l-LR1404 was tested. in subcutaneous and orthotopic xenografts of 60 different spontaneous, transgenic, human, and rodent malignant cell lines and tumor types. […] Representative examples are of both human (FIG. 5A-5l) and rodent (FIG. 5J-M) tumors.

## C[N+](C)(C)CCOP(=O)([O-])OCCCCCCCCCCCCCCCCCCc1ccc(I)cc1 [NM404, 18-(4-iodophenyl)-octadecylphosphocholine]
PC-3 cells
  less uptake after disruption of lipid rafts: ~40%
C6 glioma; 48 h after tail vein injection
  Tumor to brain ratio: 12.2
C6 glioma; 96 h after tail vein injection
  Tumor to brain ratio: 6.7
C6 glioma; gliomas ranging from 3-5 mm in diameter
  uptake and retention in gliomas (imaging): striking uptake and prolonged retention in all gliomas
C6 glioma; sham operated control animals
  Radioactivity in normal brain tissue: minimal

## C[N+](C)(C)CCOP(=O)([O-])OCCCCCCCCCCCCCCCCCCc1ccc(C2=C3C=CC=[N+]3[B-](F)(F)n3cccc32)cc1 [CLR1501]
[1]
  preferential uptake in cancer cell lines compared to normal fibroblasts: five to nine
[2]
  uptake compared to normal human astrocytes and fetal human neural stem cells: enhanced uptake

## C[N+](C)(C)CCOP(=O)([O-])OCCCCCCCCCCCCCCCCCCc1ccc(I)cc1 [CLR1404, 18-(4-iodophenyl)-octadecylphosphocholine]
[3]
  tumor uptake and retention in the primary lung tumor: significant tumor uptake and retention
[4]
  time remaining in cancer cells: up to 20 days
[5]
  models showing tumor selectivity / selective and prolonged tumor retention: 55/60
